Laboratory results: PubChem BioAssay AID179 (DTP/NCI, 2004)
“And” between values parts separate entries of the source, which are not always exact repeats. Identical values can stand only once. The source made the active and inactive calls.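 Rule for the calls: active = compounds giving half or more protection of infected cells from virus-caused growth loss, again on retest; inactive = the rest.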

System: CEM cells HIV-1 protection, formazan growth assay
Experiment: NCI AIDS Antiviral Assay
Details: for IC50: measured here: growth of uninfected CEM cells
Procedure, shortened: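 CEM (human) cells, HIV-1 infected vs uninfected, 5-point dosing, formazan growth read-out. Retest threshold 50% protection.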

SMILES	outcome	EC50	IC50
CC(=O)NCc1c(C(N)=O)ncn1Cc1ccccc1	inactive		
OCC1OC(n2nc(-c3ccccc3)nc2-c2cnccn2)C(O)C(O)C1O (centres undefined)		> 200 µM	> 200 µM
O=C1C(Cl)=C(Cl)C(=O)N1c1ccc(Cl)c(Cl)c1Cl	inactive		
CS(=O)(=O)OCC1OC2OC3(CCCCC3)OC2C1OCc1ccccc1 (centres undefined)		> 200 µM	105 µM
C#C[C@]1(O)CC[C@H]2[C@@H]3C[C@@H](O)[C@]45CC4CC[C@]5(C)[C@H]3CC[C@@]21C (some centres undefined)		> 200 µM	72.4 µM
CN(C)c1ccc(/C=C/c2ccnc3ccccc23)cc1		> 200 µM	10.7 µM
COC(=O)c1ccccc1C1CN=NC12Cc1cccc(C)c1C2=O (centres undefined)		> 200 µM	57.5 µM
S=C(NCc1ccccn1)N/N=C/c1ccccn1		> 0.2 µM	0.00794 µM
CCOC(=O)/C(=C/c1ccc(C)cc1)C(=O)c1ccccc1		> 24.5 µM	15.1 µM
c1cncc(CN2CCCCC2)c1	inactive		
Oc1ccc2ccccc2c1NCn1nc(CCCCCCCCc2nn(CNc3c(O)ccc4ccccc34)c(=S)o2)oc1=S		> 200 µM	37.2 µM
COc1cccc(C=C(C#N)C#N)c1		> 708 µM	115 µM
Cc1nn(C(=O)c2ccccc2O)c2c1C(c1ccc3ccccc3c1O)SC(N)=N2 (centres undefined)		> 2 µM	1.38 µM
Nc1nc(=S)[nH]c(C(=O)Nc2ccc(Cl)c(Cl)c2)c1-c1ccc(Cl)cc1		> 43.7 µM	> 43.7 µM
O=C(Cn1cc(Br)c(=O)[nH]c1=O)c1ccc(-c2ccccc2)cc1		> 200 µM	> 200 µM
CC(C)OP(=O)(OC(C)C)C(C)(C)O		> 200 µM	> 200 µM
CC1OC(OC2C(Oc3ccc4c(=O)c(-c5ccc(O)c(O)c5O)coc4c3)OC(CO)C(O)C2O)C(O)C(O)C1O (centres undefined)		> 200 µM	67.6 µM
Cc1[nH]c(N)c(C#N)c1Cc1ccccc1		> 200 µM	> 200 µM
Cc1ccc(NC(=O)C(=O)C2C(=O)N(c3ccccc3)N=C2N)cc1C (centres undefined)	inactive		
OC(Cc1cnnc2ccccc12)C(Cl)(Cl)Cl (centres undefined)		> 200 µM	70.8 µM
COc1cc(C2C(Cl)C(=O)N2NC(=O)Cc2ccccc2)ccc1O (centres undefined)		> 72.4 µM	> 72.4 µM
COc1cc(NS(=O)(=O)c2ccc(C(C)=O)cc2)nc(OC)n1		> 200 µM	> 200 µM
O=C(NC12CC3CC(CC(C3)C1)C2)C(=O)c1c[nH]c2ccccc12	inactive		
CC1=Nc2ccccc2NC(=O)C1		> 200 µM	> 200 µM

SMILES	outcome	EC50	IC50
CCC(F)(C(N)=O)C(=O)O (centres undefined)		> 200 µM	> 200 µM
COc1nc2c(nnn2C2OCC(O)C(O)C2O)c(=O)n1C (centres undefined)	inactive		
CC(=O)Nc1ccc(/C=C/C(=O)c2sc(-n3nc(-c4ccccc4)cc3-c3ccccc3)nc2C)cc1		> 20 µM	17 µM
CC(OCc1ccccc1)C1OC2(C)CCC(=O)C1O2 (centres undefined)	inactive		
O=C1OC(c2ccccc2)c2ccsc2-n2cccc21 (centres undefined)		> 200 µM	123 µM
Cc1ccc(S(=O)(=O)c2ccc(C)cc2[N+](=O)[O-])c([N+](=O)[O-])c1		> 40.7 µM	> 40.7 µM
C=CCN(CC=C)Cn1c(=S)sc2ccccc21		> 200 µM	141 µM
O=CC1=CN2C(c3ccoc3)CCC(CO)C2CC1 (centres undefined)	inactive		
Cc1cccc(C)c1NC(=O)C(=O)C(C#N)c1ccccc1Cl (centres undefined)		> 759 µM	> 759 µM
O=[N+]([O-])c1ccc2c(c1)c(OCc1ccccc1)nn2Cc1ccccc1		> 200 µM	95.5 µM
Cc1cc(=O)oc2c(CNC(C)C(=O)O)c(O)ccc12 (centres undefined)		> 200 µM	186 µM
NC(=O)C(c1ccccc1)N1CCCCC1 (centres undefined)	inactive		
COC(=O)c1c(C)cc(OC(=O)c2c(C)cc(O)c(C=O)c2O)c(C)c1O		> 151 µM	20.4 µM
O=C(O)CCCCCCCCCCCCCCC(=O)O		> 18.2 µM	> 18.2 µM
COc1cc(CNc2nc3ccccc3n2Cc2ccccc2)cc(CN2CCOCC2)c1O		> 200 µM	32.4 µM
O=C(CCNC(=O)OCc1ccccc1)OCCCNC(=O)OCc1ccccc1		> 200 µM	> 200 µM
Cc1ccc(-c2nc3cc(N4CCN(C)CC4)c(F)cc3[nH]2)cc1		> 200 µM	26.3 µM
C=CCc1cc(C=C(C#N)C#N)cc(OC)c1O		> 200 µM	97.7 µM
Cc1cc(C)c2c(c1C)CN1CN2Cc2c(C)c(C)cc(C)c21	inactive		
COc1ccc(OC)c(NC(=S)N/N=C/c2cccc3ccccc23)c1		> 200 µM	1.05 µM
O[C@@]1(C#Cc2ccc3c(c2)OCO3)CCC[C@H]1NCc1ccccc1		> 200 µM	36.3 µM
CN(C)CCn1c2c(c3ccccc31)CCc1ccccc1-2		> 200 µM	15.5 µM
CCCCCCCCCCCCC1N=C(N)N2CCCC2=C1C(=O)OC (centres undefined)		> 200 µM	4.9 µM
O=NNc1ccc(S(=O)(=O)c2ccc3ccccc3c2)cn1		> 200 µM	112 µM

SMILES	outcome	EC50	IC50
COc1cc(NCC(C#N)C#N)ccc1N=Nc1ccc([N+](=O)[O-])cc1		> 38.9 µM	> 38.9 µM
O=c1[nH]nnc2ccccc12		> 245 µM	> 245 µM
Cc1ccc(SC2C(=O)C3CC(OCc4ccccc4)C2(C)C3(C)C)cc1 (centres undefined)		> 200 µM	> 200 µM
C/C(=N\N(C)C)c1sc(-n2nc(-c3ccccc3)cc2-c2ccccc2)nc1C		> 46.8 µM	> 46.8 µM
C/C=C/C=C/c1nc(C#N)c(N)o1		> 200 µM	85.1 µM
CCOC(=O)C(/C(=N\NC(=O)OC)C(=O)Nc1cc(OC)ccc1OC)c1cnc2ccccc2n1 (centres undefined)		81.3 µM	138 µM
CCOC(=O)N1CC2(C)C=CC1C(C(=O)OC)C2 (centres undefined)		> 200 µM	> 200 µM
O=C1c2cc3c(cc2CC12Cc1cc4c(cc1C2)CCC4)CCC3		> 200 µM	> 200 µM
CC(C)=CCCC1(C)C2COC(=O)C21 (centres undefined)		> 200 µM	70.8 µM and 15.1 µM
O=P(c1ccccc1)(c1ccccc1)C1CC=C(c2ccccc2)C2(CCCC2)C1 (centres undefined)		> 8.71 µM	> 8.71 µM
COc1cc2c(cc1OC)C13CCN4CC5CCOC6CC(=O)N2C1C6C5CC43 (centres undefined)		> 200 µM	> 200 µM
COC1/C=C\OC2(C)Oc3c(C)c(O)c4c(O)c(c(C=Nc5ccc6ccccc6c5)c(O)c4c3C2=O)NC(=O)/C(C)=C\C=C/C(C)C(O)C(C)C(O)C(C)C(OC(C)=O)C1C (centres undefined)		> 200 µM	35.5 µM
C/C(C=O)=N\Nc1cc(C)c2ccccc2n1		> 200 µM	9.55 µM
COc1ccccc1C(=O)NO		> 200 µM	> 200 µM
Cn1c(=O)c2nc3c4ccccc4c(=O)n(C)c3nc2n(C)c1=O	inactive		
C[N+](C)(C)CCC(=O)N1C/C(=C\c2ccccc2)C(=O)/C(=C/c2ccccc2)C1		> 200 µM	2.82 µM
O=C(CNc1c(Cl)cccc1Cl)NC1C=Cc2ccc(S(=O)(=O)Nc3c(Cl)cccc3Cl)cc2C1=O (centres undefined)		> 200 µM	123 µM
CCOc1ccc(N=Cc2cc(OC)c(OC)c(OC)c2)cc1		> 60.3 µM	> 60.3 µM
C/C=C/CCC1CCCCN(C(=O)OC(C)(C)C)C1OCC (centres undefined)		> 60.3 µM	> 60.3 µM
Cc1no[n+]([O-])c1/C=N/NS(=O)(=O)c1ccccc1		> 891 µM	407 µM
C=CCC1C(=O)CC2(C)CC(=O)C(CC=C)C12C (centres undefined)	inactive		
Cc1cccc(C)c1NC(=O)C(=O)CC(=O)CO		> 724 µM	> 724 µM
COC(=O)c1ccccc1CC(Cc1ccccc1)C(=O)OC (centres undefined)	inactive		
c1ccc(-c2c(-c3cccs3)[nH]c(-c3cccs3)c2-c2ccccn2)nc1		> 38 µM	25.7 µM

SMILES	outcome	EC50	IC50
CC(=O)O[C@H]1[C@@H](OC2CCCC2(c2ccccc2)c2ccccc2)O[N+]([O-])=C[C@@H]1c1ccccc1 (some centres undefined)		> 200 µM	3.09 µM
CN(C)/C=C/C(=CC=[N+](C)C)/C=C/N(C)C	inactive		
Cc1cc(O)c(C=O)c2c1C(=O)Oc1c(CO)c(O)c3c(c1O2)C(O)OC3=O (centres undefined)		> 57.5 µM	> 57.5 µM
CC(C1=CC(=O)c2c(O)ccc(O)c2C1=O)C1=CC(=O)c2c(O)ccc(O)c2C1=O	inactive		
CC(=O)C1CC2(C(=O)C1=O)c1ccccc1-c1ccccc12 (centres undefined)	inactive		
C/C(CC(=O)NCCc1ccccc1)=N\NC(=O)C[n+]1ccccc1		> 95.5 µM	> 95.5 µM
C=CCn1c(=S)[nH]c2c(Cl)cc(Cl)cc2c1=O		> 200 µM	107 µM
Nc1ncnc2c1ncn2C(CO)OC(CO)CCP(=O)(O)O (centres undefined)		> 100 µM	> 100 µM
COc1ccc(/C(=N/NC(=O)NN)C(c2ccc(OC)cc2)C2(O)CNc3c(Cl)cc(Cl)cc32)cc1 (centres undefined)		> 9.77 µM	> 9.77 µM
Cc1ccc(S(=O)(=O)N/N=C2\CC3C4CCC3C2C4)cc1 (centres undefined)		> 200 µM	> 200 µM
CCOC(=O)c1[nH]n(-c2ccccc2)c(=O)c1/C=N/C(=S)N=Nc1c(O)[nH]c2ccccc12		> 200 µM	> 100 µM
Cc1cc(O)c(/C=N/C(=S)Nc2cc(Cl)ccc2Cl)c(=O)o1		> 50.1 µM	> 50.1 µM
O=C(O)CSc1ccc2c3c(cccc13)C(=O)c1ccccc1-2		> 200 µM	3.09 µM
CN(C)CCCN1c2ccccc2Sc2ccc(C(F)(F)F)cc21		> 200 µM	107 µM
CCCCCCCCCCCCCCCCOCC(CCl)OP(=O)(O)OP(=O)(O)OCC1OC(n2ccc(N)nc2=O)C(O)C1O (centres undefined)		> 200 µM	170 µM
N#Cc1nc(-c2ccsc2)oc1N		> 200 µM	> 200 µM
CCOC(=O)CC(=O)C(=O)NNC1=NCCN1		> 200 µM	> 200 µM
COC(=O)c1ccc(CSc2ccc(OC)cc2)cc1	inactive		
O=C1NC(=O)c2ccc([N+](=O)[O-])c3cccc1c23		> 0.871 µM	0.1 µM
O=S(=O)(c1ccccc1)C1CC(c2ccccc2)N(c2ccccc2)O1 (centres undefined)		> 27.5 µM	> 27.5 µM
CN1C=CC(C(C(N)=O)c2ccccc2)c2ccccc21 (centres undefined)		> 200 µM	178 µM
